Results taken from US20090029406A1, “Npy Y4 Agonist as Therapeutic Agent for Disease Accompanied by Intestinal Tract Dysfunction” (Banyu Pharmaceutical Co., Ltd., priority 2006, published 2009).

Assays:
male mice (C57BL/6J) = experiment: Amount of excreted feces after subcutaneous administration to mice (Example 1); type: in vivo, mouse
Text: Also, it is known that the Y4 receptor is present in the lower gastrointestinal tract. Accordingly, by administering mouse PP (mPP) to a mouse, an effect on the movement of the lower gastrointestinal tract of the mouse was studied. That is, how the amount of excreted feces was changed by the administration of mPP was observed, and a change in the gastrointestinal movement was discussed by assuming that an increase in the amount of excreted feces reflects an increase in the lower gastrointestinal tract movement.
To male mice (C57BL/6J, 15 weeks of age), mPP (0.001, 0.01, 0.1 or 1 mg/kg) was subcutaneously administered, and to a vehicle group, only saline (5 mL/kg) was subcutaneously administered. The mice were subjected to fasting at the same time of the subcutaneous administration of saline or mPP. Feces were collected at 1, 2 and 4 hours after the administration, and the weight of the feces was measured. A significant difference between groups was analyzed using an analysis of variance and the Dunnett's test.

[1] = system: proximal colon isolated from a C57BL/6 mouse; experiment: Tension of isolated proximal colon, organ bath (Example 2)
Experimental: (§1) The ileum, proximal colon and distal colon were isolated from a C57BL/6 mouse (8 to 20 weeks of age). The specimens were cut into a length of 1 cm, respectively, and were suspended in the longitudinal muscle direction under a resting tension of 0.3 g in 5 mL of Krebs-Henseleit solution (the composition is shown in Table 1) oxygenated with 95% O2 and 5% CO2, while setting the temperature of a bath to 37° C. The tension was measured using an isometric transducer (TB-651, manufactured by Nihon Kohden), and outputs were recorded at 20 points per second using Power Lab (manufactured by ADInstrument).
(§2) After equilibration for 1 hour, mPP at 0.01 μM, 0.1 μM and 1 μM was applied and measurement was carried out for 20 minutes. The above-mentioned mPP was prepared such that it became 0.01 mM, 0.1 mM and 1 mM solutions in DMSO, and 5 μL of each of the resulting solutions was applied to 5 mL of an organ bath. The action of mPP was represented by a ratio of an average tension for 20 minutes after the application to an average tension for 20 minutes before the application. The statistical calculation was performed using the paired t-test.

[2] = system: distal colon isolated from a C57BL/6 mouse; experiment: Tension of isolated distal colon, organ bath (Example 2)
Experimental: as §1, §2

[3] = system: ileum isolated from a C57BL/6 mouse; experiment: Tension of isolated ileum, organ bath (Example 2); conditions: 0.01, 0.1 and 1 μM
Experimental: as §1, §2

[4] = system: mouse models of constipation induced by clonidine; experiment: Mouse models of constipation induced by clonidine, amount of excreted feces (Example 3); type: in vivo; conditions: clonidine 0.1 mg/kg i.p., mPP 1 mg/kg s.c. one hour later; 4 hours after clonidine (3 hours after mPP)
Experimental: To male mice (C57BL/6J, 18 weeks of age), clonidine (0.1 mg/kg) was intraperitoneally administered, and to a vehicle group, only saline was intraperitoneally administered. One hour after the administration of clonidine, saline (a control group) or mPP (1 mg/kg) was subcutaneously administered, and also to a vehicle group, only saline was subcutaneously administered. The mice were subjected to fasting at the same time of the intraperitoneal administration of saline or clonidine. Feces were collected at 1, 2, 3 and 4 hours after the administration, and the weight of the feces was measured. A significant difference between groups was analyzed using an analysis of variance and the Tukey's test.

wild-type mice = experiment: Amount of excreted feces in wild-type mice (Example 4); type: in vivo, mouse; conditions: 1 mg/kg subcutaneous
Experimental: (§3) The following test was carried out using wild-type mice and NPY Y4 receptor knockout mice (male, 23 to 39 weeks of age, n=10 to 16). mPP (1 mg/kg) or saline (5 mL/kg) was subcutaneously administered to the mice. The mice were subjected to fasting at the same time of the subcutaneous administration. Feces were collected at 1 and 2 hours after the administration, and the weight of the feces was measured. The cumulative amount of feces for 2 hours was used for an analysis, and a significant difference between groups was analyzed using the Student's t-test.

[5] = system: NPY Y4 receptor knockout mice; experiment: Amount of excreted feces in NPY Y4 receptor knockout mice (Example 4); type: in vivo, mouse; conditions: 1 mg/kg subcutaneous, vehicle group 358±31 mg/2 h
Experimental: as §3

[6] = system: proximal colon isolated from a wild-type mouse; experiment: Tension of proximal colon isolated from wild-type mouse (Example 5); conditions: 1 μM
Experimental: (§4) The ileum, proximal colon and distal colon were isolated from an NPY Y4 receptor knockout mouse and a wild-type mouse (32 to 37 weeks of age). The specimens were cut into a length of 1 cm, respectively, and were suspended in the longitudinal muscle direction under a resting tension of 0.3 g in 5 mL of Krebs-Henseleit solution oxygenated with 95% O2 and 5% CO2, while setting the temperature of a bath to 37° C. The tension was measured using an isometric transducer (TB-65 1, manufactured by Nihon Kohden), and outputs were recorded at 20 points per second using Power Lab (ADInstrument).
(§5) After equilibration for 1 hour, 1 μM mPP was applied and measurement was carried out for 20 minutes. The above-mentioned mPP was prepared such that it became a 1 mM solution in DMSO, and 5 μL of the resulting solution was applied to 5 mL of an organ bath. The action of mPP was represented by a ratio of an average tension for 20 minutes after the application to an average tension for 20 minutes before the application. The statistical calculation was performed using the Student's t-test or paired t-test.

[7] = system: distal colon isolated from a wild-type mouse; experiment: Tension of distal colon isolated from wild-type mouse (Example 5); conditions: 1 μM
Experimental: as §4, §5

[8] = system: ileum isolated from an NPY Y4 receptor knockout mouse and a wild-type mouse; experiment: Tension of ileum isolated from NPY Y4 receptor knockout and wild-type mouse (Example 5); conditions: 1 μM
Experimental: as §4, §5

[9] = 0.01, 0.1 and 1 μM, ratio of average tension 20 min after to 20 min before application

## mouse PP (APLEPMYPGDYATPEQMAQYETQLRRYINTLTRPRY; mouse) [mPP]
Male mice (C57BL/6J); 0.1 mg/kg subcutaneous, P<0.05 vs vehicle group (211±18 mg/4 h)
  cumulative amount of excreted feces for 4 hours after administration: 325±22 mg/4 h
Male mice (C57BL/6J); 0.001, 0.01, 0.1 or 1 mg/kg subcutaneous, feces collected at 1, 2 and 4 hours
  action of increasing defecation (amount of excreted feces): exhibited an action of increasing defecation in a dose dependent manner
Male mice (C57BL/6J); 1 mg/kg subcutaneous, P<0.01 vs vehicle group (211±18 mg/4 h)
  cumulative amount of excreted feces for 4 hours after administration: 408±36 mg/4 h
Male mice (C57BL/6J); subcutaneous
  dose at which cumulative amount of excreted feces for 4 hours was significant compared with the vehicle group: ≥ 0.1 mg/kg
[1]
  amplitude of automatism: an increase in the amplitude of automatism was observed
[1]; 0.01, 0.1 and 1 μM
  increase in the tension, dose dependence: increased the tension in a dose dependent manner
[1]; [9]
  maximum action on tension, of that before the application: 131%
[2]
  amplitude of automatism: an increase in the amplitude of automatism was observed
[2]; 0.01, 0.1 and 1 μM
  increase in the tension, dose dependence: increased the tension in a dose dependent manner
[2]; [9]
  maximum action on tension, of that before the application: 152%
[3]
  increase in the tension: a significant increase in the tension was not observed
[4]
  decrease in the amount of excreted feces compared with the vehicle group: a significant decrease in the amount of excreted feces was not observed
wild-type mice
  action of increasing defecation: exhibited an action of increasing defecation
wild-type mice; P<0.01 vs vehicle group (322±41 mg/2 h)
  cumulative amount of feces for 2 hours: 668±64 mg/2 h
[5]
  cumulative amount of feces for 2 hours: 403±43 mg/2 h
[6]
  increase in the tension: an increase in the tension observed in the wild-type mouse
[7]
  increase in the tension: an increase in the tension observed in the wild-type mouse
[8]
  difference in the change in the tension between wild-type and NPY Y4 receptor knockout mouse: a difference was not observed between them
